The text below walks through data of patent publication US6794365B2, “Malonic acid derivatives, processes for their preparation their use and pharmaceutical compositions containing them” (Aventis Pharma Deutschland GmbH, priority 2000, dated 2004).

Where a name gives a salt, the structure may show the parent alone.

B1: antistasin (protein, UniProt P15358 18-136, looked up)
Antistasin: QGPFGPGCEEAGCPEGSACNIITDRCTCSGVRCRMHCPHGFQRSRYGCEFCKCRLEPMKATCDISECPEGMMCSRLTNKCDCKIDINCRKTCPNGLKRDKLGCEYCECRPKRKLIPRLS

In the first experiment the test system is thrombin and factor Xa.
Test: not given
To be noted: rate of inactivation thrombin vs factor Xa; cited from earlier work.
As for heparin [reference compound], the “thrombin inactivated faster than factor Xa” value is “approximately 100 times”.

Another experiment deals with T1, factor Xa (Homo sapiens, UniProt P00742). The experiment in a line: In vitro Factor Xa assay (Test 1a), chromogenic substrate S-2765. The conditions noted are these: Factor Xa inhibitory activity; Ki from IC50 corrected for substrate competition; 25° C., pH 7.8; read-out: Ki (FXa). The format is biochemical. Further details: purchased Enzyme Research Laboratories, Inc; South Bend, Ind. The procedure: Purified enzymes are used in chromogenic assays. To determine the inhibition constant, the IC50 value is corrected for competition with substrate using the formula: […] where Km is the Michaelis-Menten-constant (Y.-C. Chen and W. H. Prusoff, Biochem. Pharmacol. 22: […] (1973), which is incorporated herein by reference). TBS-PEG buffer (50 mM Tris-Cl, pH 7.8, 200 mM NaCl, 0.05% (w/v) PEG-8000, 0.02% (w/v) NaN3) is used for this assay. The IC50 is determined by combining in appropriate wells of a Costar half-area microtiter plate 25 μl human factor Xa (Enzyme Research Laboratories, Inc.; South Bend, Ind.) in TBS-PEG; 40 μl 10% (v/v) DMSO in TBS-PEG (uninhibited control) or various concentrations of the compound to be tested diluted in 10% (v/v) DMSO in TBS-PEG; and substrate S-2765 (N-benzyloxycarbonyl-[…]-nitroanilide; Kabi Pharmacia, Inc.; Franklin Ohio) in TBS-PEG. […] The initial velocity of chromogenic substrate hydrolysis is measured by the change in absorbance at 405 nm using a Bio-tek Instruments kinetic plate reader ([…] 25° C. during the linear portion of the time course (usually 1.5 min after addition of substrate).
T1 sequence (P00742 235-488 limits assumed): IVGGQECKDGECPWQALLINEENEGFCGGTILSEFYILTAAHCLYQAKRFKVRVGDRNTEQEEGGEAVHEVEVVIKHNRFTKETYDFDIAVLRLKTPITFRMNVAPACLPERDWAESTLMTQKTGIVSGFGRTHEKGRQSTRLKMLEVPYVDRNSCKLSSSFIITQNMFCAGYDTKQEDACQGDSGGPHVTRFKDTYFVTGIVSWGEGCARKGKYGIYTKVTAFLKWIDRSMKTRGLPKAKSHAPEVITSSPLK
T1 sequence (P00742 41-179 partner limits assumed): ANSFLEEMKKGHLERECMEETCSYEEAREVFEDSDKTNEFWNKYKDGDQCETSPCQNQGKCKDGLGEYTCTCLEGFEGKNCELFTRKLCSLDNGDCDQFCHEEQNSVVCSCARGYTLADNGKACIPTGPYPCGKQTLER
The Ki is the equilibrium dissociation constant of an inhibitor or competing ligand from its target. `CCCC[C@H](NC(=O)C(Cc1ccc(C(=N)N)cc1)C(=O)NC)C(=O)N[C@@H](CCCNC(=N)N)C(N)=O` (stereo partly drawn) [Example 28, 2-(4-Carbamimidoyl-benzyl)-N-[1-(S)-(1-(S)-carbamoyl-4-guanidino-butylcarbamoyl)-pentyl]-N′-methyl-malonamide trifluoroacetic acid salt]: the Ki stood at 47 nM.
For the molecule `CCCC[C@H](NC(=O)C(Cc1ccc(C(=N)N)cc1)C(=O)Nc1ccccc1)C(=O)N[C@@H](CCCNC(=N)N)C(N)=O` (stereo partly drawn) [Example 30, 2-(4-Carbamimidoyl-benzyl)-N-[1-(S)-(1-(S)-carbamoyl-4-guanidino-butylcarbamoyl)-pentyl]-N′-phenyl-malonamide trifluoroactic acid salt], the inhibition constant Ki was determined as 153 nM.
Still for that read-out and setting: for `N=C(N)NCCC[C@H](NC(=O)[C@H](Cc1ccc2ccccc2c1)NC(=O)C(Cc1ccc(C(=N)N)cc1)C(=O)Nc1ccccc1)C(N)=O` (stereo partly drawn) [Example 38, 2-(4-Carbamimidoyl-benzyl)-N-[1-(S)-(1-(S)-carbamoyl-4-guanidino-butylcarbamoyl)-2-naphthalen-2-yl-ethyl]-N′-phenyl-malonamide trifluoroacetic acid] the value was 1100 nM; for `CN(C)C(=O)C(Cc1ccc(C(=N)N)cc1)C(=O)N[C@@H](CCc1ccccc1)C(=O)N[C@@H](CCCNC(=N)N)C(N)=O` (stereo partly drawn) [Example 40, 2-(4-Carbamimidoyl-benzyl)-N-[1-(S)-(1-(S)-carbamoyl-4-guanidino-butylcarbamoyl)-3-phenyl-propyl]-N′,N′-dimethyl-malonamide trifluoroacetic acid salt], 10.7 nM; for `C=CCNC(=O)C(Cc1ccc(C(=N)N)cc1)C(=O)N[C@@H](CCCN)C(=O)N[C@@H](CCCNC(=N)N)C(N)=O` (stereo partly drawn) [Example 45, N-Allyl-N′-[4-amino-1-(S)-(1-(S)-carbamoyl-4-guanidino-butylcarbamoyl)-butyl]-2-(4-carbamimidoyl-benzyl)-malonamide trifluoroacetic acid salt], 26500 nM.
As for `N=C(N)NCCC[C@H](NC(=O)[C@H](CO)NC(=O)C(Cc1ccc(C(=N)N)cc1)C(=O)Nc1ccccc1)C(N)=O` (stereo partly drawn) [Example 54, 2-(4-Carbamimidoyl-benzyl)-N-[1-(S)-(1-(S)-carbamoyl-4-guanidino-butylcarbamoyl)-2-hydroxy-ethyl]-N′-phenyl-malonamide trifluoroacetic acid salt], the Ki turned out to be 3010 nM.
As for `CN(C)C(=O)C(Cc1ccc(C(=N)N)cc1)C(=O)N[C@H](C(=O)N[C@@H](CCCNC(=N)N)C(N)=O)c1ccccc1` (stereo partly drawn) [Example 56, 2-(4-Carbamimidoyl-benzyl)-N-[(S)-(1-(S)-carbamoyl-4-guanidino-butylcarbamoyl)-phenyl-methyl]-N′,N′-dimethyl-malonamide trifluoroacetic acid salt], the Ki was 2.1 nM.
Take `N=C(N)NCCC[C@H](NC(=O)[C@@H](NC(=O)C(Cc1ccc(C(=N)N)cc1)C(=O)Nc1ccccc1)c1ccccc1)C(N)=O` (stereo partly drawn) [Example 58, 2-(4-Carbamimidoyl-benzyl)-N-[(S)-(1-(S)-carbamoyl-4-guanidino-butylcarbamoyl)-phenyl-methyl]-N′-phenyl-malonamide trifluoroacetic acid salt]: the Ki amounted to 57.5 nM.
On to `C=CCNC(=O)C(Cc1ccc(C(=N)N)cc1)C(=O)N[C@@H](COCc1ccccc1)C(=O)N[C@@H](CCCNC(=N)N)C(N)=O` (stereo partly drawn) [Example 61, N-Allyl-N′-[2-benzyloxy-1-(S)-(1-(S)-carbamoyl-4-guanidino-butylcarbamoyl)-ethyl]-2-(4-carbamimidoyl-benzyl)-malonamide trifluoroacetic acid salt], for which the Ki was 957 nM.
Regarding `CN(C)C(=O)C(Cc1ccc(C(=N)N)cc1)C(=O)N[C@@H](CCC(=O)O)C(=O)N[C@@H](CCCNC(=N)N)C(=O)N[C@@H](CC1CCCCC1)C(N)=O` (stereo partly drawn) [Example 69, 4-(S)-[3-(4-Carbamimidoyl-phenyl)-2-dimethylcarbamoyl-propionylamino]-4-[1-(S)-(1-(S)-carbamoyl-2-cyclohexyl-ethylcarbamoyl)-4-guanidino-butylcarbamoyl]-butyric acid trifluoroacetic acid salt], the Ki is 285 nM.
With `CCCC[C@@H](NC(=O)C(Cc1ccc(C(=N)N)cc1)C(=O)N(C)C)C(=O)N[C@@H](CCCNC(=N)N)C(=O)O` (stereo partly drawn) [Example 72, 2-(S)-{2-(R)-[3-(4-Carbamimidoyl-phenyl)-2-dimethylcarbamoyl-propionylamino]-hexanoylamino}-5-guanidino-pentanoic acid trifluoroacetic acid salt], the Ki was found to be 4300 nM.
As to `N=C(N)NCCC[C@H](NC(=O)[C@@H](NC(=O)C(Cc1ccc(C(=N)N)cc1)C(=O)NCc1ccccc1)C1CCCCC1)C(=O)O` (stereo partly drawn) [Example 82, 2-(S)-{2-(S)-[2-Benzylcarbamoyl-3-(4-carbamimidoyl-phenyl)-propionylamino]-2-cyclohexyl-acetylamino}-5-guanidino-pentanoic acid trifluoroacetic acid salt], the Ki was 39.3 nM.
For the molecule `C=CCNC(=O)C(Cc1ccc(C(=N)N)cc1)C(=O)N[C@@H](CCC(=O)O)C(=O)N[C@@H](CCCNC(=N)N)C(=O)N[C@@H](CC1CCCCC1)C(N)=O` (stereo partly drawn) [Example 89, 4-(S)-[2-Allylcarbamoyl-3-(4-carbamimidoyl-phenyl)-propionylamino]-4-[1-(S)-(1-(S)-carbamoyl-2-cyclohexyl-ethylcarbamoyl)-4-guanidino-butylcarbamoyl]-butyric acid trifluoroacetic acid salt], the Ki worked out at 6480 nM.
Take `CN(Cc1ccccc1)C(=O)C(Cc1ccc(C(=N)N)cc1)C(=O)N[C@H](C(=O)N[C@@H](CCCNC(=N)N)C(N)=O)C1CCCCC1` (stereo partly drawn) [Example 144, N-Benzyl-2-(4-carbamimidoyl-benzyl)-N′-[(S)-(1-(S)-carbamoyl-4-guanidino-butylcarbamoyl)-cyclohexyl-methyl]-N-methyl-malonamide trifluoroacetic acid salt]: the Ki is 11 nM.

System in another experiment: not given
Test: not given
The conditions noted are these: subcutaneous; cited from earlier work.
B1: the “treatment effect in DIC model” value was “effective treatment”.

System in a further experiment: not given
Test: not given
The conditions noted are these: recombinantly-produced inhibitor; cited from earlier work.
With “tick anticoagulant peptide (YNRLCIKPRDWIDECDSNEGGERAYFRNGKGGCDSFWICPEDHTGADYYSSYRDCFNACI; UniProt P17726 1-60, looked up) [TAP]”, the prevention of clotting entry was “prevent clotting”.
On to B1, for which the prevention of clotting entry is “prevent clotting”.

Another experiment has as its target T1, factor Xa.
Test: not given
The conditions noted are these: cited from earlier work.
Consider “tick anticoagulant peptide (YNRLCIKPRDWIDECDSNEGGERAYFRNGKGGCDSFWICPEDHTGADYYSSYRDCFNACI; UniProt P17726 1-60, looked up) [TAP]”, for which the Ki was roughly 0.5 nM.
Turning to B1, the Ki is 0.05 nM.

System in the next experiment: not given
Test: not given
To be noted: TAP at less than about two fold aPTT prolongation; heparin at doses causing five fold aPTT increase; cited from earlier work.
In the case of heparin [reference compound], the “prevention of high-shear arterial thrombosis and reduced flow in graft” value is listed as “did not prevent thrombosis”.
With “tick anticoagulant peptide (YNRLCIKPRDWIDECDSNEGGERAYFRNGKGGCDSFWICPEDHTGADYYSSYRDCFNACI; UniProt P17726 1-60, looked up) [TAP]”, the “prevention of high-shear arterial thrombosis and reduced flow in graft” value is reported as “effectively prevents”.
